# Experimental data from patent publication US20110052697A1, “Aptamer-Directed Drug Delivery” (GWANGJU INSTITUTE OF SCIENCE & TECHNOLOGY, priority 2006, published 2011).
# Entries after “also recorded” stand apart in the source; their conditions may differ.
# Assays:
# [1] = cited from earlier work
# [2] = target: A10 PSMA aptamer; experiment: Fluorescence quenching titration of Dox with the A10 PSMA aptamer (Hill plot); format: binding; conditions: FIG. 2 inset
# Method: A complex comprising the A10 PSMA aptamer (RNA-Tec, Belgium) and doxorubicin (Dox) was generated through the stepwise addition of increasing molar ratio of aptamer to a fixed concentration of doxorubicin (3 μM) in the presence of 0.1 M sodium acetate, 0.05 M sodium chloride, and 0.01 M magnesium chloride. The fluorescence of Dox was measured at 35 minutes by exciting the solution at 480 nm and recording the emission in the interval of 500 nm-720 nm (1.5 mm slit) on a Shimadzu RF-PC100 spectrofluorophotometer.
# [3] = system: LNCaP(PSMA+) cells; experiment: Cell uptake by confocal laser scanning microscopy, LNCaP; format: cell-based; conditions: 1.5 μM Dox, 2 hours
# Method: (§1) Prostrate cancer cell lines LNCaP(PSMA+) and PC3 (PSMA−) (5*10^3 cells/mL) were grown in chamber slides in RPMI 1640 media with 10% fetal bovine serum for 24 hours to attain 70% confluence. Before incubation with complex, cells were pre-incubated with OPTIMEM media for 30 minutes, followed by incubation with physical complex of 1.0:1.1 molar ratio of Dox:aptamer with a doxorubicin concentration of 1.5 μM for 2 hours, the cells were washed with PBS twice, fixed with 3.5% HCHO for 10 minutes, washed, mounted with Vector mounting media and cover slipped. Fluorescence images were obtained (Carl Zeiss LSM 510, Ar laser 488, long pass filter 560,63× water lens.)
# [4] = system: PC3 (PSMA−) cells; experiment: Cell uptake by confocal laser scanning microscopy, PC3; format: cell-based; conditions: 1.5 μM Dox, 2 hours
# Method: as §1
# [5] = system: LNCaP cells; experiment: Flow cytometry of cellular uptake, LNCaP; format: cell-based; conditions: LNCaP compared to PC3; 1.5 μM
# Method: (§2) Cellular uptake of the complex was confirmed using flow cytometry (EPICS XL Flow cytometry systems, Beckman Coulter, Inc). Briefly, 5×10^4 cells were seeded onto 12 well plates (n=4) for 24 hours followed by incubation for 2 hours with the complex solution (1.0:1.1 mole ratio of Dox:aptamer) such that final Dox concentration was 1.5 μM. Cells were washed with PBS twice, trypsinized, centrifuged at 1000 rpm for 3 minutes and resuspended in PBS for FACS analysis. Data were processed with EXPO 32 software.
# [6] = system: PC3 cells; experiment: Flow cytometry of cellular uptake, PC3; format: cell-based; conditions: PC3 compared to LNCaP; 1.5 μM
# Method: as §2
# [7] = system: LNCaP cells; conditions: MTT, QD 100 nM, Dox 5 μM
# Method: (§3) The prostate LNCaP and PC3 cell lines were grown in 24-well plates in RPMI-1640 and Ham's F-12K medium, respectively, both supplemented with 100 units/ml aqueous penicillin G, 100 μg/ml streptomycin, and 10% FBS (fetal bovine serum) at concentrations to allow 70% confluence in 24 hours (i.e., 40,000 cells/cm^2). […] Cells were incubated with the conjugates for 3 hours at 37° C., washed two times with PBS (1 ml per well), and incubated in fresh growth media for a total of 72 hours. Cell viability was assessed colorimetrically with the MTT reagent (ATCC) following the standard protocol provided by the manufacturer. The absorbance was read with a microplate reader at 570 nm.
# [8] = system: PC3 cells; conditions: MTT, QD 100 nM, Dox 5 μM
# Method: as §3
# [9] = system: LNCaP cells; conditions: cited from earlier work
# [10] = system: PC3 cells; conditions: cited from earlier work
molecule,measurement,setting,value
"CC(=O)O[C@@]12CO[C@@H]1C[C@H](O)[C@@]1(C)C(=O)[C@H](O)C3=C(C)[C@@H](OC(=O)[C@H](O)[C@@H](NC(=O)OC(C)(C)C)c4ccccc4)C[C@@](O)([C@@H](OC(=O)c4ccccc4)[C@H]21)C3(C)C [Dtxl, docetaxel]",water solubility,[1],0.025 µg/mL
"COc1cccc2c1C(=O)c1c(O)c3c(c(O)c1C2=O)C[C@@](O)(C(=O)CO)C[C@@H]3O[C@H]1C[C@H](N)[C@H](O)[C@H](C)O1 [free Dox, doxorubicin]",Kd expressed as equiv of the aptamer,[2],0.52 equiv
same,uptake / staining by confocal microscopy,[3],readily diffuses through the plasma membrane; also recorded: almost exclusively stains nuclei
same,uptake / staining by confocal microscopy,[4],readily diffuses through the plasma membrane
same,staining by flow cytometry,[5],near-identical staining
same,staining by flow cytometry,[6],near-identical staining
same,cytotoxicity,[7],equipotent
same,cytotoxicity,[8],equipotent
"free aptamer: A10 RNA aptamer that binds to the PSMA protein on the surface of prostate cancer cells (Lupold et al., 2002) (nucleic acid, chemistry not given here) GGGAGGACGAUGCGGAUCAGCCAUGUUUACGUCACUCCUUGUCAAUCCUCAUCGGCAGACGACUCGCCCGA","cytotoxicity, previously reported",[9],no cytotoxicity
same,"cytotoxicity, previously reported",[10],no cytotoxicity
